Laboratory results: patent publication US4540682A, “Pharmaceutical peptides, preparation, use and intermediates” (Burroughs Wellcome Co., priority 1983, dated 1985)

Tests used:
[1] = tested on: Male mice (CFLP strain); assay: Hotplate test; type: in vivo; settings: subcutaneous; test repeated 15 mins. after treatment; as free peptide where appropriate; NE = no effect
Text: (§1) (1) Both the hotplate test (Woolfe and MacDonald, J. Pharmacol. Exp. Ther. 80: 300, 1944) and the irritant-induced writhing (stretch) test (Vander Wende and Margolin, Fed. Proc. 15: 494, 1956) are standard in the art for the investigation of analgesic activity. Whereas it is believed that the pain in the latter can be ameliorated either centrally or peripherally, it is thought that that induced in the hotplate test is affected only at the central level.
Male mice (CFLP strain, Hacking and Churchill) were individually placed in a copper-bottomed perspex box suspended in a water bath at 55° C. and observed for signs of discomfort such as shaking or licking the paws, the reaction time (up to a maximum of 30 secs.) being recorded. Groups of five animals then received either a test compound or saline vehicle (0.85%) control by subcutaneous injection, the test being repeated at 15 mins. after treatment. The ED50 figures for the test compounds were calculated from the number of animals having a posttreatment reaction time which was twice the pretreatment figure.

[2] = tested on: female CD1 mice; assay: Irritant-induced writhing test, phenylbenzoquinone (PBQ); type: in vivo; settings: Mus musculus, po, 0.5 h; p.o.; *test compound administered 30 min. prior to PBQ; read-out: (B) Writhing PBQ ED50 p.o.
Text: as §1
(ii) Phenylbenzoquinone (PBQ). This test was carried out in a parallel manner to that employing acetic acid, except that the period over which the writhing/stretching movements were counted began 10 mins. after administration of the PBQ irritant, the latter being given at a dosage of 2.5 mg/kg and in a dose volume of 10 ml/kg. The ED50 figures for the test compounds were calculated, using linear regression analysis, as the dose in the presence of which only half the number of writhes/stretches was induced compared with the controls.

Row | Structure (SMILES) | (A) Hotplate ED50 [1] | ED50 [2]
1 | COc1ccc2c(c1)c(CC(=O)O)c(C)n2C(=O)c1ccc(Cl)cc1 [Indomethacin] | NE @ 100 | 
2 | CN1CC[C@]23c4c5ccc(O)c4O[C@H]2[C@@H](O)C=C[C@H]3[C@H]1C5 [Morphine] |  | 3.5 mg/kg
3 | CC(C)=CCN1CCC2(C)c3cc(O)ccc3CC1C2C (stereo not drawn) [Pentazocine] | NE @ 100 | 
